Source: US20230203059A1, “MACROCYCLIC JAK INHIBITOR AND USES THEREOF” (Biopolar Hongye (Guangdong) Pharmaceutical Co. Ltd., priority 2020, published 2023)

How the values were obtained:
Assay type in all cases: biochemical
JAK3 = target: T1, JAK3 (Homo sapiens, UniProt P52333); test: JAK kinase activity, homogeneous time-resolved fluorescence (JAK3 reaction system); details: ATP 2 μM, JAK3 protein 0.04 ng/μL; read-out: JAK 3 activity
T1 sequence (P52333 1-1124): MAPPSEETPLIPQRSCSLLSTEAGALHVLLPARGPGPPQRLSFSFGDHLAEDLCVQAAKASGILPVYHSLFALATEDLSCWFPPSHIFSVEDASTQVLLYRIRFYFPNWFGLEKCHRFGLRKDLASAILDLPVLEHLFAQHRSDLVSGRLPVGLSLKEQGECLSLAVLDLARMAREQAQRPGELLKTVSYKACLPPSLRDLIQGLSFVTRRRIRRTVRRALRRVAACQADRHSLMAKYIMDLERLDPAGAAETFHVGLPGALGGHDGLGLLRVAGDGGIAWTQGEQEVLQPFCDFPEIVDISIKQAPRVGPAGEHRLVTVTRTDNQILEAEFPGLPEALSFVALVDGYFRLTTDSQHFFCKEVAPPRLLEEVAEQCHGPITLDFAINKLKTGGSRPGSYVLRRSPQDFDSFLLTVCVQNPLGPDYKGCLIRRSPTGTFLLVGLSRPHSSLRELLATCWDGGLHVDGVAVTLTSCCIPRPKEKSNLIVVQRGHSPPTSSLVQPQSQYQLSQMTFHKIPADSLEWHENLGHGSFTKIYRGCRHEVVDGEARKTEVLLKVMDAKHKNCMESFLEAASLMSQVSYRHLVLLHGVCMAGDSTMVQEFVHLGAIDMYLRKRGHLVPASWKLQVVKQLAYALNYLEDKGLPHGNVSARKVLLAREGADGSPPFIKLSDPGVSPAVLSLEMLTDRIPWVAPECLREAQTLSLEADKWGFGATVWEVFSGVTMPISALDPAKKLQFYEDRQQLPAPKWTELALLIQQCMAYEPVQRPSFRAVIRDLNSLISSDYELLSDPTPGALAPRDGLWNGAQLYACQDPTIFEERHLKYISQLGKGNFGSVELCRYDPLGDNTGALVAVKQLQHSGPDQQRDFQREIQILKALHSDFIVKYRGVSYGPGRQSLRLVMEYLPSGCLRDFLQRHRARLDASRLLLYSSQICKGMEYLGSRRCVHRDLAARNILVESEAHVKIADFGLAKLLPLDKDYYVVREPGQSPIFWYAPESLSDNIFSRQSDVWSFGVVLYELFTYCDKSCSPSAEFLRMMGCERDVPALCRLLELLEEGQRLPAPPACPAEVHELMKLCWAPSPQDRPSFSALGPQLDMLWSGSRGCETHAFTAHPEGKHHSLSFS
Protocol: The activity measurement method of JAK kinase was to use homogeneous time-resolved fluorescence technique. […] The mixture of kinase protein, compound, ATP and substrate was carried out in a reaction buffer of 50 mM Hepes (pH7.0), NaN3 0.02%, BSA 0.01%, 0.1 mM Orthocanadate, 5 mM MgCl2, and 1 mM DTT. […] The reaction signal of kinase was detected by PE company's porous plate detector. The parameter settings were excitation light at 320 nm, emission light at 615 nm and 665 nm. The activity of JAK is indirectly reflected by the signal ratio of 665 nm and 615 nm. In the reaction, the background well without enzyme and the total enzyme activity well without compound were set. […]
In JAK3 reaction system, the concentration of ATP was 2 μM, and the concentration of JAK3 protein was 0.04 ng/μL.

JAK2 = JAK2 (Homo sapiens, UniProt O60674); test: JAK kinase activity, homogeneous time-resolved fluorescence (JAK2 reaction system); details: ATP 2 μM, JAK2 protein 0.01 ng/μL
Sequence of JAK2 (O60674 whole entry): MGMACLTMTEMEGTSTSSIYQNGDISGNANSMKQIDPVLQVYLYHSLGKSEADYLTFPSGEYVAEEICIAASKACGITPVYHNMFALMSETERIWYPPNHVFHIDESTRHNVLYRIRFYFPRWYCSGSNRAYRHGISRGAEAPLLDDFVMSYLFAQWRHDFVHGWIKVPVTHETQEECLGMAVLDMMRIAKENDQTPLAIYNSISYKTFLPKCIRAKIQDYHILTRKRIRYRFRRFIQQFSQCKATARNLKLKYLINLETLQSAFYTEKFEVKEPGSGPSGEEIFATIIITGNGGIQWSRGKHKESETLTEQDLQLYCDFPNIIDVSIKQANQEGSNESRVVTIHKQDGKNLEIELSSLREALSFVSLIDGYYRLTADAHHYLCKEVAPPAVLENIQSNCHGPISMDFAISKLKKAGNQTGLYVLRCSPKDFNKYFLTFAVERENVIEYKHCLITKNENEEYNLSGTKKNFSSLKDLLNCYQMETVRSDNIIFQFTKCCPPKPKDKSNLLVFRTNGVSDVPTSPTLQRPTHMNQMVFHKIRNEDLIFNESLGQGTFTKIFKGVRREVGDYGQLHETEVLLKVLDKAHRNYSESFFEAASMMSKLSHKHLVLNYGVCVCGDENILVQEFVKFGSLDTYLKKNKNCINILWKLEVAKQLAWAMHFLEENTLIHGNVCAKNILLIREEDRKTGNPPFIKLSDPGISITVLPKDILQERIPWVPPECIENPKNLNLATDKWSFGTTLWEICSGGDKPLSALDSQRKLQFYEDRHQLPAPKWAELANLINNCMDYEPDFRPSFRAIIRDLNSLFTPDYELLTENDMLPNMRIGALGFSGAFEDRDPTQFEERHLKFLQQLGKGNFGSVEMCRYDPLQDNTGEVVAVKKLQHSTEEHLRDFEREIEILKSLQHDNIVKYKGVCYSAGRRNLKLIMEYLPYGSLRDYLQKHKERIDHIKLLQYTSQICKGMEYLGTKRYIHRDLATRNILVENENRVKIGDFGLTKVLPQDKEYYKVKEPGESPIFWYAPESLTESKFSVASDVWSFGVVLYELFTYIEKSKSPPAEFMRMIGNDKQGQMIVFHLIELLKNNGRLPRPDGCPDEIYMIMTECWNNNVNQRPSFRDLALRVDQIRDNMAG
Protocol: (§1) The activity measurement method of JAK kinase was to use homogeneous time-resolved fluorescence technique. The reaction was performed in 384 shallow well plates with a total reaction volume of 10 μL. The mixture of kinase protein, compound, ATP and substrate was carried out in a reaction buffer of 50 mM Hepes (pH7.0), NaN3 0.02%, BSA 0.01%, 0.1 mM Orthocanadate, 5 mM MgCl2, and 1 mM DTT. After reacting for 1 hour, an antibody capable of recognizing substrate phosphorylation, dye XL-615 and detection buffer (Cisbio) containing EDTA were added to the system. The reaction signal of kinase was detected by PE company's porous plate detector. The parameter settings were excitation light at 320 nm, emission light at 615 nm and 665 nm. The activity of JAK is indirectly reflected by the signal ratio of 665 nm and 615 nm. In the reaction, the background well without enzyme and the total enzyme activity well without compound were set.
(§2) The IC50 value of the compound inhibiting protein was obtained by the formula: Y=100/(1+10^((Log IC50−X)*HillSlope)). In JAK1 reaction system, the concentration of ATP was 2 μM, and the concentration of JAK1 protein was 0.2 ng/μL.
In JAK2 reaction system, the concentration of ATP was 2 μM, and the concentration of JAK2 protein was 0.01 ng/μL.

TYK2 = TYK2 (Homo sapiens, UniProt P29597); test: JAK kinase activity, homogeneous time-resolved fluorescence (TYK2 reaction system); details: ATP 2 μM, TYK2 protein 0.2 ng/μL; read-out: TYK 2 activity
Sequence of TYK2 (P29597 whole entry): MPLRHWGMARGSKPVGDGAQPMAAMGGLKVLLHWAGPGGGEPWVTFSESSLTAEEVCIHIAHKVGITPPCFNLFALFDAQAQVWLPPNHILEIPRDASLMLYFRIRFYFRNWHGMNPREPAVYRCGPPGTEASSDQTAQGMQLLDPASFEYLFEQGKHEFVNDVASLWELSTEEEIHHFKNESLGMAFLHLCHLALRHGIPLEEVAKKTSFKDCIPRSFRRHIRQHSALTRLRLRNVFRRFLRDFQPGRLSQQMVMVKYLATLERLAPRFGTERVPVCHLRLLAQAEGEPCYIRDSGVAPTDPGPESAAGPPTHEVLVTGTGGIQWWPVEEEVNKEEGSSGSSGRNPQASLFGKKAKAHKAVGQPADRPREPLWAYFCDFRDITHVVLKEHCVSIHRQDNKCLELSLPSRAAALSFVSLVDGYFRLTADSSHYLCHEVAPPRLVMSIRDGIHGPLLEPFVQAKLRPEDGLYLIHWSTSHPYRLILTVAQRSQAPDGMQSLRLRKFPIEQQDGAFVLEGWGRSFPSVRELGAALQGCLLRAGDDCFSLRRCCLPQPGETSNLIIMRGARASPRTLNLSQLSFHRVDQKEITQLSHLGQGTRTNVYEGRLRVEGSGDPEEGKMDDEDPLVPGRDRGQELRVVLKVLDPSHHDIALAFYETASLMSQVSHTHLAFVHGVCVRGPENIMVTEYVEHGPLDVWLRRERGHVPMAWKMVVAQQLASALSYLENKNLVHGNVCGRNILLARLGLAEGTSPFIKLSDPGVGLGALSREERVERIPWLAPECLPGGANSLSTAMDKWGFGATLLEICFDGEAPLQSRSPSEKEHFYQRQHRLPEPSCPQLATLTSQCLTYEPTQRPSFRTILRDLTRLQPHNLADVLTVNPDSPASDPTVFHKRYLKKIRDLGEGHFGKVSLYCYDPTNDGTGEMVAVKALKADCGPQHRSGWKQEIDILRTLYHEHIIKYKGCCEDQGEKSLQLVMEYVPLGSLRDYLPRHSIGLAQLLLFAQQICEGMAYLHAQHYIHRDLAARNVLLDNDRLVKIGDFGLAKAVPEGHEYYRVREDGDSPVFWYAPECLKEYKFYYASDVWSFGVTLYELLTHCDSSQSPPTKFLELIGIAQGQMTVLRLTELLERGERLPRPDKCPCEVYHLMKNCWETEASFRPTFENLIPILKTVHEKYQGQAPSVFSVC
Protocol: as §1, §2
In TYK2 reaction system, the concentration of ATP was 2 μM, and the concentration of TYK2 protein was 0.2 ng/μL.

JAK1 = JAK1 (Homo sapiens, UniProt P23458); test: JAK kinase activity, homogeneous time-resolved fluorescence (JAK1 reaction system); details: ATP 2 μM, JAK1 protein 0.2 ng/μL; read-out: JAK 1 activity
Sequence of JAK1 (P23458 whole entry): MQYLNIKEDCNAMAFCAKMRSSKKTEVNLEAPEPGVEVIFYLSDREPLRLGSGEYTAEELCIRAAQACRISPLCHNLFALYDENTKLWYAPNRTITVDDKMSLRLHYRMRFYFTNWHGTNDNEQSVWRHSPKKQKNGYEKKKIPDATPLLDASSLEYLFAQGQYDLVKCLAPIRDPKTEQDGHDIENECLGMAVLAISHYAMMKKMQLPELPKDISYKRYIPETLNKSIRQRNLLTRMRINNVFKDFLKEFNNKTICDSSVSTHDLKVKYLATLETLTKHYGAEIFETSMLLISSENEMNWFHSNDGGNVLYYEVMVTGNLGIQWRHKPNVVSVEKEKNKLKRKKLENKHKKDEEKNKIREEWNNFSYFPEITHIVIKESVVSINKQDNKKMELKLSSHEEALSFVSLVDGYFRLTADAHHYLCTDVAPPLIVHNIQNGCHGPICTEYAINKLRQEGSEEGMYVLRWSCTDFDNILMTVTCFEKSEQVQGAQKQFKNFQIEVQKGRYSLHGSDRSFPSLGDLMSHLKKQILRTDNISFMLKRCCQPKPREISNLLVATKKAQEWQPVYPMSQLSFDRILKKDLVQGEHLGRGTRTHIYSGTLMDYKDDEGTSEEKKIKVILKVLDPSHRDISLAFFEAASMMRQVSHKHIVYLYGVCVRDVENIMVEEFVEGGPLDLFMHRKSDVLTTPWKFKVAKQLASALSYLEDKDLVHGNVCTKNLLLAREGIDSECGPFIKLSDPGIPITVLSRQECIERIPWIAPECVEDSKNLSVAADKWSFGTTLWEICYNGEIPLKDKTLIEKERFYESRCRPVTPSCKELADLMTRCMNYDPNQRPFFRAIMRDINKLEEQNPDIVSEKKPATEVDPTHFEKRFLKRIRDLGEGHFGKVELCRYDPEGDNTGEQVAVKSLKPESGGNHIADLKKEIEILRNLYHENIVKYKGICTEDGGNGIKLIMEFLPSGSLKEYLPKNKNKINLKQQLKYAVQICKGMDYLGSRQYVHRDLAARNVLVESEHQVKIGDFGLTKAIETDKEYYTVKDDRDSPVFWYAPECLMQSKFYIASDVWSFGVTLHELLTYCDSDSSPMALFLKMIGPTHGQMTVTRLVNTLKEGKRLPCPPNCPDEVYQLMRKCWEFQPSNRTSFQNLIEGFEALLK
Protocol: as §1, §2

## O=C1NCCCCCOCc2cc(ccc2N2CCOCC2)Nc2nccc(n2)-c2ccc1cc2[N+](=O)[O-] [Example 49, 1^2-nitro-4^4-morpholin-6-oxa-3,12-di-aza-2(4,2)-pyrimidina-1(1,4),4(1,3)-dibenzenacyclotridecaphan-13-one]
JAK3
  IC50: 1000 to 10000 nM
JAK2
  IC50: 101 to 1000 nM
TYK2
  IC50: 1000 to 10000 nM
JAK1
  IC50: 1000 to 10000 nM

## CC1CCOCc2cc(ccc2OC2CCCOC2)Nc2nccc(n2)-c2ccc(cc2N)C(=O)NC1 (centres unmarked) [Example 165, 1^2-amino-9-methyl-4^4-((tetrahydro-2H-pyran-3-yl)oxy)-6-oxa-3,11-di-aza-2(4,2)-pyrimidina-1(1,4),4(1,3)-dibenzenacyclododecaphan-12-one]
JAK3
  IC50: < 10 nM
JAK2
  IC50: 11 to 100 nM
TYK2
  IC50: 101 to 1000 nM
JAK1
  IC50: 101 to 1000 nM

## Nc1cc2ccc1-c1ccnc(n1)Nc1cc(cc(N3CCSCC3)c1)COCCCCNC2=O [Example 77, 1^2-amino-4^5-thiomorpholin-6-oxa-3,11-diaza-2(4,2)-pyrimidina-1(1,4),4(1,3)-dibenzenacyclododecaphan-12-one]
JAK3
  IC50: 11 to 100 nM
JAK2
  IC50: 11 to 100 nM
TYK2
  IC50: 101 to 1000 nM
JAK1
  IC50: 101 to 1000 nM

## Nc1cc2ccc1-c1ccnc(n1)Nc1ccc(OCC3Cc4ccccc4C3)c(c1)COCCCCNC2=O [Example 123, 1^2-amino-4^4-((2,3-dihydro-1H-inden-2-yl)methoxy)-6-oxa-3,11-diaza-2(4,2)-pyrimidina-1(1,4),4(1,3)-dibenzenacyclododecaphan-12-one]
JAK3
  IC50: 11 to 100 nM
JAK2
  IC50: 1000 to 10000 nM
TYK2
  IC50: 1000 to 10000 nM
JAK1
  IC50: 1000 to 10000 nM

## Nc1cc2ccc1-c1ccnc(n1)Nc1ccc(OC3CC3)c(c1)COc1ccc(cc1F)NC2=O [Example 199, 1^2-amino-4^4-cyclopropoxy-7^2-fluoro-6-oxa-3,8-diaza-2(4,2)-pyrimidina-1,7(1,4),4(1,3)-tribenzenacyclonona-phane-9-one]
JAK3
  IC50: 11 to 100 nM
JAK2
  IC50: 1000 to 10000 nM
TYK2
  IC50: 1000 to 10000 nM
JAK1
  IC50: 101 to 1000 nM

## O=C1NCCCCOCc2cc(ccc2Oc2ccc(F)cc2)Nc2nccc(n2)-c2ccc1cc2[N+](=O)[O-] [Example 106, 4^4-(4-fluorophenoxy)-1^2-nitro-6-o-xa-3,11-diaza-2(4,2)-pyrimidina-1(1,4),4(1,3)-dibenzenacyclo-dodecaphan-12-one]
JAK3
  IC50: 101 to 1000 nM
JAK2
  IC50: 1000 to 10000 nM
TYK2
  IC50: > 10000 nM
JAK1
  IC50: > 10000 nM

## O=C1Nc2ccc(cc2)OCc2cc(ccc2OC2CCCC2)Nc2nccc(n2)-c2ccc1cc2O [Example 215, 4^4-(cyclopentoxy)-1^2-hydroxy-6-oxa-3,8-diaza-2 (4,2)-pyrimidina-1,7(1,4),4(1,3)-tribenzenacyclononaphane-9-one]
JAK3
  IC50: 11 to 100 nM
JAK2
  IC50: 101 to 1000 nM
TYK2
  IC50: 1000 to 10000 nM
JAK1
  IC50: 1000 to 10000 nM

## O=C1NCCCCOCc2cc(ccc2N2CCOCC2)Nc2nccc(n2)-c2ccc1cc2 [Example 1, 4^4-morpholin-6-oxa-3, 11-diaza-2 (4,2)-pyrimidina-1(1,4),4(1,3)-dibenzenacyclododecaphan-12-one]
JAK3
  IC50: < 10 nM
JAK2
  IC50: 11 to 100 nM
TYK2
  IC50: 101 to 1000 nM
JAK1
  IC50: 11 to 100 nM

## CC1CCNC(=O)c2ccc(c([N+](=O)[O-])c2)-c2ccnc(n2)Nc2ccc(OC3CC3)c(c2)COC1 (centres unmarked) [Example 103]
JAK3
  IC50: 101 to 1000 nM
JAK2
  IC50: 1000 to 10000 nM
TYK2
  IC50: > 10000 nM
JAK1
  IC50: > 10000 nM

## CN1CCN(c2ccc3cc2COCCCCNC(=O)c2ccc(c([N+](=O)[O-])c2)-c2ccnc(n2)N3)CC1 [Example 59, 1^2-nitro-4^4-(4-methylpiperazin-1-)-6-oxa-3,11-diaza-2(4,2)-pyrimidina-1(1,4),4(1,3)-dibenzenacyclododeca-phan-12-one]
JAK3
  IC50: 101 to 1000 nM
JAK2
  IC50: 1000 to 10000 nM
TYK2
  IC50: > 10000 nM
JAK1
  IC50: 1000 to 10000 nM

## Cc1cc2ccc1-c1ccnc(n1)Nc1ccc(OC3CCCCC3)c(c1)COCCCCNC2=O [Example 44, 1^2-methyl-4^4-cyclohexyloxy-6-oxa-3,11-diaza-2(4,2)-pyrimidina-1(1,4)-4(1,3)-dibenzenacyclododecaphan-12-one]
JAK3
  IC50: 11 to 100 nM
JAK2
  IC50: 101 to 1000 nM
TYK2
  IC50: 1000 to 10000 nM
JAK1
  IC50: 1000 to 10000 nM

## Cc1cc2ccc1-c1ccnc(n1)Nc1ccc(N)c(c1)COCCCCNC2=O [Example 78, 4^4-amino-1^2-methyl-6-oxa-3,11-dia-za-2(4,2)-pyrimidina-1(1,4),4(1,3)-dibenzenacyclododecaphan-12-one]
JAK3
  IC50: 11 to 100 nM
JAK2
  IC50: 101 to 1000 nM
TYK2
  IC50: > 10000 nM
JAK1
  IC50: 1000 to 10000 nM

## Nc1cc2ccc1-c1ccnc(n1)Nc1ccc(OCC(F)(F)F)c(c1)COCCCCNC2=O [Example 109, 1^2-amino-4^4-(2,2,2-trifluoroethoxy)-6-oxa-3,11-diaza-2(4,2)-pyrimidi-na-1(1,4),4(1,3)-dibenzenacyclo-dodecaphan-12-one]
JAK3
  IC50: 11 to 100 nM
JAK2
  IC50: 101 to 1000 nM
TYK2
  IC50: 1000 to 10000 nM
JAK1
  IC50: 1000 to 10000 nM

## O=C1NCCCCCc2cc(ccc2N2CCOCC2)Nc2nccc(n2)-c2ccc1cc2 [Example 32, 4^4-morpholin-3,11-diaza-2(4,2)-pyri-midina-1(1,4),4(1,3)-dibenzenacyclo-dodecaphan-11-one]
JAK3
  IC50: 11 to 100 nM
JAK2
  IC50: < 10 nM
TYK2
  IC50: 101 to 1000 nM
JAK1
  IC50: 101 to 1000 nM

## Nc1cc2ccc1-c1ccnc(n1)Nc1ccc(OC3CCCC3)c(c1)COCCCCNC2=O [Example 88, 1^2-amino-4^4-cyclopentoxy-6-oxa-3,11-diaza-2(4,2)-pyrimidina-1(1,4),4(1,3)-dibenzenacyclododecaphan-12-one]
JAK3
  IC50: < 10 nM
JAK2
  IC50: 11 to 100 nM
TYK2
  IC50: 1000 to 10000 nM
JAK1
  IC50: 101 to 1000 nM

## O=C1NCCCCOCc2cc(ccc2OCc2cccc3c2CCO3)Nc2nccc(n2)-c2ccc1cc2[N+](=O)[O-] [Example 150, 4^4-((2,3-dihydroxybenzofuran-4-yl)methoxy)-1^2-nitro-6-oxa-3,11-diaza-2(4,2)-pyrimidina-1(1,4),4(1,3)-dibenzenacyclododecaphan-12-one]
JAK3
  IC50: 1000 to 10000 nM
JAK2
  IC50: > 10000 nM
TYK2
  IC50: > 10000 nM
JAK1
  IC50: > 10000 nM

## O=C1Nc2ccc(cc2)OCc2cc(ccc2F)Nc2nccc(n2)-c2ccc1cc2O [Example 216, 4^4-fluoro-1^2-hydroxy-6-oxa-3,8-dia-za-2(4,2)-pyrimidina-1,7(1,4),4(1,3)-tribenzenacyclononaphane-9-one]
JAK3
  IC50: 11 to 100 nM
JAK2
  IC50: 101 to 1000 nM
TYK2
  IC50: 1000 to 10000 nM
JAK1
  IC50: 101 to 1000 nM
